Columns and labels:
CD34^+38^−90^+ HSCs = test: cell cycle analysis (Ki-67 / Hoechst) of HSCs; assay type: cell-based, human; settings: 72 h, RV transduced cycling HSCs; MK-8776 1 μM, PV1019 1 μM, PGE2 10 μM, Birb 796 600 nM
γH2AX = test: DNA damage response (γH2AX, 53BP1) by immunofluorescence and flow cytometry; assay type: cell-based, human; settings: 72 h, RV transduced cycling HSCs
Procedure: For EdU incorporation assay, cells were incubated with 10 μM EdU throughout the culture period and the CLICK-IT® Plus EdU Pacific Blue Flow Cytometry Assay Kit (ThermoFisher Scientific C10636) was used for staining. […] Samples were run through a FACSCANTOTM, FORTESSATM, or LSR 2 flow cytometers (BD Biosciences), and the data was analyzed by […] software (BD). […] II cell sorter. FACS sorted CD34+38-90+ cells were fixed in 2% paraformaldehyde and permeabilized using 0.1% […] polyether alcohol, Sigma-Aldrich). […] Cells were counterstained and mounted with […]® antifade mounting medium with DAPI (H-1200 Vector Laboratories). Images were obtained using a Nikon 90i upright microscope.

human CD34^+ cells = test: GFP marking in human grafts of NSG mice; assay type: in vivo; settings: limiting dilution transplant; also long-termed secondary human grafts
Source text: NOD.Cg-Prkdcscid Il2rgtm1Wjl/SzJ (NSG) mice were purchased from The Jackson Laboratory (Bar Harbor, Me.). All animals were bred and maintained in a specific pathogen-free environment and all experiments were approved by the Institutional Animal Care and Use (IACUC) Committee. Male and female NSG mice aged 8 to 14 weeks old were fed doxycycline chow (TestDiet; Modified Prolab RMH-1500 with 0.0625% doxycycline) a week prior to, during and for 2 weeks post irradiation. Human engraftment was analyzed in bone marrow (BM), via BM aspirates performed at 6 and 12 weeks from left and right femurs. After sacrifice at 24 weeks, marrow from all of the primary mice (1 T) was harvested. Peripheral blood analysis was also performed in some experiments. Secondary transplants (2 T) were performed after mouse CD45^+ cells were depleted from BM harvested from each 1 T mouse separately, using Biotin Rat Anti-Mouse CD45 (BD Biosciences 553078) and Streptavidin Particles Plus-DM (BD Biosciences 557812) and injected into one irradiated (280 cGy) secondary NSG mouse. […] Total ROS and mitochondrial specific ROS were detected using 10 μM CM-H2DCFDA (ThermoFisher Scientific C6827) and 5 μM MITOSOXTM Red (Red Mitochondrial Superoxide Indicator) (ThermoFisher Scientific M36008) respectively, following manufacturer's instructions.

[1] = tested on: human MPB derived CD34^+ cells; test: multi-lineage reconstitution (myeloid / B-lymphoid) in bone marrow of NSG mice; assay type: in vivo; settings: limiting dilution transplant, 42 h LV; 6 mo post 1 T
Source text: NOD.Cg-Prkdcscid Il2rgtm1Wjl/SzJ (NSG) mice were purchased from The Jackson Laboratory (Bar Harbor, Me.). All animals were bred and maintained in a specific pathogen-free environment and all experiments were approved by the Institutional Animal Care and Use (IACUC) Committee. Male and female NSG mice aged 8 to 14 weeks old were fed doxycycline chow (TestDiet; Modified Prolab RMH-1500 with 0.0625% doxycycline) a week prior to, during and for 2 weeks post irradiation. Human engraftment was analyzed in bone marrow (BM), via BM aspirates performed at 6 and 12 weeks from left and right femurs. After sacrifice at 24 weeks, marrow from all of the primary mice (1 T) was harvested. Peripheral blood analysis was also performed in some experiments. Secondary transplants (2 T) were performed after mouse CD45^+ cells were depleted from BM harvested from each 1 T mouse separately, using Biotin Rat Anti-Mouse CD45 (BD Biosciences 553078) and Streptavidin Particles Plus-DM (BD Biosciences 557812) and injected into one irradiated (280 cGy) secondary NSG mouse. For calculating competitive repopulating units (CRU) from limiting dilution transplantation, the L-CALC^TM software (Stem Cell Technologies) was used. All of the mice used for this study were randomly assigned to a treatment group. No animals were excluded from the analysis. PE-Cyanine 7 or APC-EFLUOR® 780, APC- or PE-conjugated antibodies directed to human CD34 (BD Biosciences 560710 or 555824), CD38 (eBiosciences, San Diego, Calif. 47-0389-42), CD90 (BioLegend 328120), CD45RA (eBiosciences 17-0458-42), CD49f (BD Biosciences 555736), CD45 (BD 55485 or Biolegend 304026), CD33 (eBiosciences 25-0338-42), CD19 (BD Biosciences 557791), or CD3 (BD Biosciences 555340). Cells ( 5×10^5-1×10^6) were used to label with antibodies as per manufacturer instructions with the appropriate isotype controls. For phospho-flow, primary antibodies phospho-[…]), phospho-p44/42 MAPK (ERK 1⁄2) […]; […]), and phospho-JNK […] PE conjugate; […]) (all from Cell Signaling) were used for staining overnight followed by wash and secondary antibody stain including Goat anti-Rabbit IgG (H+L) or Goat anti-Rabbit IgG (H+L) or Pacific Blue (P-10994) antibody. Apoptosis assay was performed using PE Annexin V Apoptosis Detection Kit (BD Biosciences 559763) according to the manufacturer's instructions. Total ROS and mitochondrial specific ROS were detected using 10 μM CM-H2DCFDA (ThermoFisher Scientific C6827) and 5 μM MITOSOXTM Red (Red Mitochondrial Superoxide Indicator) (ThermoFisher Scientific M36008) respectively, following manufacturer's instructions.

HIF-1α = HIF-1α staining in HSCs (immunofluorescence, flow cytometry); assay type: cell-based, human; settings: 72 h, RV transduced CD34^+38^−90^+ cells
Source text: FACS sorted CD34+38−90+ cells were fixed in 2% paraformaldehyde and permeabilized using 0.1% TRITON™ X-100 (Alkaryl polyether alcohol, Sigma-Aldrich). Cells were then stained with primary antibodies Anti-phospho-H2AX (Ser 139) (Millipore, 05-636), anti-53BP1 antibody (Novus Biologicals, NB100-904), or anti-HIF-1α (ab103063). For secondary antibodies, Alexa Fluor 594 conjugated Goat anti-Rabbit IgG (H+L) (A-11037) or, ALEXA FLUOR® 647 conjugated Goat anti-Rabbit IgG (H+L) (A-21245) (both from ThermoFisher Scientific) were used for 1 hour at 37° C. Cells were counterstained and mounted with […]® antifade mounting medium with DAPI (H-1200 Vector Laboratories). Images were obtained using a Nikon 90i upright microscope.

## Cn1cc(-c2cnn3c(N)c(Br)c([C@@H]4CCCNC4)nc23)cn1 [Chk1i]
CD34^+38^−90^+ HSCs
  transduced HSCs accumulated in the G2M phase: Fewer transduced-HSCs were found to accumulate in the G2M phase with Chk1i (albeit not statistically significant)

## CCCCC(C)(C)[C@H](O)/C=C/[C@H]1[C@H](O)CC(=O)[C@@H]1C/C=C\CCCC(=O)O [PGE2, 16,16 dimethyl Prostaglandin E2]
γH2AX
  γH2AX levels in the transduced HSCs: no effect
Human CD34^+ cells
  GFP marking: did not have any effect
CD34^+38^−90^+ HSCs
  transduced HSCs accumulated in the G2M phase: tended to reduce
[1]
  lineage skewing: sufficient to restore the lineage skewing
HIF-1α
  HIF-1α levels in cycling transduced HSCs: could be stabilized

Reference: US11518981B2, “Methods of enhancing engraftment activity of hematopoietic stem cells” (CHILDREN'S HOSPITAL MEDICAL CENTER, priority 2017, dated 2022)
